Consider 31 compounds from ChEMBL document CHEMBL2417420, “Autotaxin inhibition: development and application of computational tools to identify site-selective lead compounds” (Bioorg Med Chem, 2013).

Activity calls are given as the source filed them. The calls are words filed in the database; no cut-off is given here.

For the first assay, the target named is T1, Autotaxin (Homo sapiens, UniProt Q13822). The assay is described as follows: Inhibition of C-terminal FLAG-tagged human recombinant autotaxin using synthetic substrate FS-3 at 10 uM measured every 2 mins by FRET assay relative to control.
As to `CC(O)C(NC(=O)c1ccc(N2CCN(C(=O)Cc3ccc(O)cc3)CC2)nc1)C(N)=O` (stereo unspecified), the inhibition – broadly, the drop in the measured response relative to a control, in per cent – was found to be 10%.
Still for that read-out and setting: the figure for `CC(CC(=O)NCCc1ccncc1)NC(=O)c1cc(-c2ccccc2)nc2ccccc12` (stereo unspecified) is 20%.
Turning to `CCCCOc1ccc(-c2nc3cc(C(=O)NCCOCCO)ccc3n2Cc2ccco2)cc1`, the inhibition was 10%.
Still for that read-out and setting: then `COCCNS(=O)(=O)c1ccc2c(c1)NC(=O)C(CO)N2C(=O)CN1CCC(N2CCCCC2)CC1` (stereo unspecified), with 20%; and `Cc1ccc(NC(=O)CN2C(=O)N/C(=C/c3ccc(OCc4cccc([N+](=O)[O-])c4)cc3)C2=O)cc1`, with 0%.
On the same count and under the same terms, the figure for `COc1ccc(CCn2c(-c3cc(OC)c(OC)c(OC)c3)nc3cc(C(=O)NCCOCCO)ccc32)cc1OC` is 20%.
Consider `O=C(O)c1cc(-c2ccc(/C=C3/S/C(=N\Cc4ccccc4)N(Cc4ccccc4)C3=O)o2)ccc1Cl`, for which the inhibition was found to be 20%.
Consider `CCOc1cc(CC2SC(N3CCN(C4=NC(=O)C(Cc5ccc(O)c(OCC)c5)S4)CC3)=NC2=O)ccc1O` (stereo unspecified), for which the inhibition is 30%.
Regarding `O=C(O)[C@@H](Cc1ccc(O)cc1)/N=C1\S/C(=C\c2ccc(-c3cccc(Cl)c3)o2)C(=O)N1c1ccccc1`, the inhibition amounted to 30%.
Same read-out and setting: then `COc1ccccc1C(COc1ccccc1C)NCCC(=O)N(CC(N)=O)Cc1ccc(C)cc1` (stereo unspecified), with 20%.
Same read-out and setting: then `O=C1c2ccccc2-c2ccc(S(=O)(=O)Nc3ccc(S(=O)(=O)Nc4nccs4)cc3)cc21`, with 10%; and `CC(=O)CCC(=O)N1CCN(c2ccc(C(=O)NC(C(N)=O)C(C)O)cn2)CC1C` (stereo unspecified), with 10%; and `CC(O)C(NC(=O)c1cccnc1N1CCN(C(=O)Cc2ccc(-c3ccccc3)cc2)CC1)C(N)=O` (stereo unspecified), with 20%.
Turning to `CCOc1ccc(/N=C\c2ccc(OCC)c(OCC)c2)cc1`, the inhibition worked out at 0%.
Still for that read-out and setting: then `CS(=O)(=O)N1CCC(N(C(=O)COc2ccccc2)C2CCC2)CC1c1cccc(F)c1` (stereo unspecified), with 30%; and `O=C(NCC(O)CO)c1ccc2c(c1)nc(CN1CCC(CCO)CC1)n2CCc1ccccc1` (stereo unspecified), with 10%; and `O=C(O)CN1C(=O)/C(=C/c2ccc(-c3ccc(Cl)cc3)o2)S/C1=N\c1ccccc1`, with 20%.
On the same count and under the same terms, then `COc1ccc(-c2nc3cc(C(=O)NCCOCCO)ccc3n2CCc2ccc(OC)c(OC)c2)c(OC)c1`, with 10%; and `CC(O)C(NC(=O)c1cccnc1N1CCC(CCCC2CCN(C(=O)CCC(=O)c3ccccc3)CC2)CC1)C(N)=O` (stereo unspecified), with 30%.
Same read-out and setting: the figure for `COc1ccccc1/C=C1\SC(=O)N(CCC(=O)N2c3ccccc3Sc3ccc(Cl)cc32)C1=O` is 30%; for `COc1ccc(C2CC(=O)NC(SCC(=O)Nc3ccc(I)cc3)=C2C#N)cc1OC` (stereo unspecified) it is 20%.

In a further assay the target is T1, Autotaxin. The assay is described as follows: Activation of C-terminal FLAG-tagged human recombinant autotaxin using paranitrophenyl thymidine monophosphate as substrate at 10 uM measured every 2 mins by […] assay.
Consider `CCCSC1=C(C#N)C(c2cc(Br)c(O)c(OC)c2)CC(=O)N1` (stereo unspecified), for which the outcome was Active.
The same measure, in the same setting: the entry for `CCOc1cc(/C=C2/SC(=S)N(Cc3ccccc3)C2=O)ccc1OC(=O)c1ccc(F)cc1` is “Active”; for `COc1ccc(OCCNC(=S)Nc2ccc(-c3ccccc3)cc2)cc1` it is “Active”; for `COc1cc(/C=C2/SC(=S)N(Cc3ccccc3)C2=O)ccc1OC(=O)c1ccc(F)cc1` it is “Active”.
With `COc1ccc(Cl)cc1NC(=O)CSC1=C(C#N)C(c2ccc(OC)c(OC)c2)CC(=O)N1` (stereo unspecified), the result was Active.
Regarding `COc1cc(/C=c2/sc3nc4ccccc4n3c2=O)cc(Br)c1OCc1ccccc1Cl`, the result was Active.
Still for that read-out and setting: the entry for `COc1cc(/C=C2/SC(=S)N(Cc3ccccc3)C2=O)ccc1OC(=O)c1ccco1` is “Active”.
Still for that read-out and setting: then `CCOC(=O)C1=C(C)N=c2s/c(=C/c3cccc(OC)c3O)c(=O)n2[C@@H]1c1ccccc1`, with “Active”.
Turning to `CC(=O)Nc1ccc(S(=O)(=O)N/N=C/c2ccc(OCc3ccccc3)cc2)cc1`, the result was Active.
Turning to `CCOC(=O)C1=C(C)N=c2s/c(=C/c3ccc(O)c(OC)c3)c(=O)n2[C@H]1c1cccc2ccccc12`, the result was Active.
